Results as given in PMC8296573, “Synthesis and Biological Evaluation of Fingolimod Derivatives as Antibacterial Agents” (ACS Omega, 2021).
Converted amounts (≈) assume the structure as drawn. Read-outs that look alike come from different tables or passages of the source.

Columns and labels:
S. aureus ATCC 25923 [1] = assay: Antibacterial activity, pre-exposure (planktonic cells and biofilm formation); format: cell-based, Staphylococcus aureus; details: for MIC / inhibition at 5 µM / inhibition at 10 µM / inhibition at 15 µM / inhibition at 25 µM: Staphylococcus aureus, ATCC25923; for inhibition at 5 µM / inhibition at 10 µM / inhibition at 15 µM / inhibition at 25 µM / Average inhibition %, biofilms viability / Average inhibition %, planktonic cells viability: pre-exposure, ± SD
Procedure, shortened: (§1)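 Bacteria and compound were co-incubated from the start for 18 h at 37 °C, 220 rpm. Planktonic cells scored by turbidity plus resazurin reduction; washed biofilms scored by 20 μM resazurin (30, 60, 90 min for S. aureus, A. baumannii, P. aeruginosa) and ethanol-fixed crystal violet staining.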

S. aureus ATCC 25923 [2] = assay: Antibacterial activity, post-exposure on preformed 18-h-old biofilms; format: cell-based, Staphylococcus aureus; details: ± SD; for inhibition at 25 µM / inhibition at 50 µM / inhibition at 100 µM / inhibition at 200 µM: Staphylococcus aureus; for inhibition at 25 µM: ATCC25923, 25 µM; for inhibition at 50 µM: ATCC25923, 50 µM; for inhibition at 100 µM: ATCC25923, 100 µM; for inhibition at 200 µM: ATCC25923, 200 µM
Procedure, shortened: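 Compounds were applied to preformed 18-h biofilms after medium change and left 24 h. Read-outs: planktonic OD plus resazurin fluorescence (20 μM), biofilm metabolic activity by resazurin 30 min at 37 °C, then biomass by crystal violet absorbance at 595 nm after ethanol fixation.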

A. baumannii NCTC 13423 = assay: Antibacterial activity, pre-exposure; format: cell-based, Acinetobacter baumannii; details: for Average inhibition %, biofilms viability / Average inhibition %, planktonic cells viability / inhibition at 10 µM / inhibition at 15 µM / inhibition at 25 µM / inhibition at 50 µM: A. baumannii NCTC 13423, pre-exposure, ± SD; for inhibition at 10 µM / inhibition at 15 µM / inhibition at 25 µM / inhibition at 50 µM / MIC: Acinetobacter baumannii, NCTC13423
Procedure, shortened: as §1

P. aeruginosa ATCC 9027 = assay: Antibacterial activity, pre-exposure; format: cell-based, Pseudomonas aeruginosa; details: for Average inhibition %, biofilms viability / Average inhibition %, planktonic cells viability / inhibition at 50 µM / inhibition at 100 µM / inhibition at 150 µM / inhibition at 200 µM: P. aeruginosa ATCC 9027, pre-exposure, ± SD; for MIC / inhibition at 50 µM / inhibition at 100 µM / inhibition at 150 µM / inhibition at 200 µM: Pseudomonas aeruginosa; for inhibition at 50 µM / inhibition at 100 µM / inhibition at 150 µM / inhibition at 200 µM: ATCC9027
Procedure, shortened: as §1

[3] = 10 µM, read-out: Average inhibition %, biofilms biomass
[4] = 10 µM, read-out: Average inhibition %, planktonic cells turbidity
[5] = 15 µM, read-out: Average inhibition %, biofilms biomass
[6] = 15 µM, read-out: Average inhibition %, planktonic cells turbidity
[7] = 25 µM, read-out: Average inhibition %, biofilms biomass
[8] = 25 µM, read-out: Average inhibition %, planktonic cells turbidity
[9] = read-out: Average inhibition %, biofilms biomass
[10] = read-out: Average inhibition %, planktonic cells turbidity
[11] = 50 µM, read-out: Average inhibition %, biofilms biomass
[12] = 50 µM, read-out: Average inhibition %, planktonic cells turbidity

## CCCCCCCCc1cccc(CCC(N)(CO)CO)c1 [Compound 43, 2-Amino-2-(3-octylphenethyl)propane-1,3-diol]
S. aureus ATCC 25923 [1]; lowest concentration with no visible growth (>90% inhibition of turbidity and viability of planktonic cells), 18 h, read-out: MIC S. aureus ATCC 25923
  MIC: 15 to 25 µM (≈ 4.61 to 7.69 µg/mL)
S. aureus ATCC 25923 [1]; 5 µM, read-out: Average inhibition %, biofilms biomass
  inhibition at 5 µM: 33.6 ± 16%
S. aureus ATCC 25923 [1]; 5 µM, read-out: Average inhibition %, planktonic cells turbidity
  inhibition at 5 µM: 25.6 ± 36.8%
S. aureus ATCC 25923 [1]; [3]
  inhibition at 10 µM: 29.2 ± 14.5%
S. aureus ATCC 25923 [1]; [4]
  inhibition at 10 µM: 36.2 ± 26.1%
S. aureus ATCC 25923 [1]; [5]
  inhibition at 15 µM: 66.4 ± 27.2%
S. aureus ATCC 25923 [1]; [6]
  inhibition at 15 µM: 61.4 ± 37.8%
S. aureus ATCC 25923 [1]; [7]
  inhibition at 25 µM: 92.2 ± 6.9%
S. aureus ATCC 25923 [1]; [8]
  inhibition at 25 µM: 98.9 ± 0.6%
S. aureus ATCC 25923 [1]; read-out: MIC (S. aureus)
  MIC: 15 to 25 µM (≈ 4.61 to 7.69 µg/mL)
S. aureus ATCC 25923 [1]; 5 µM
  Average inhibition %, biofilms viability: 17.4 ± 8.1%
  Average inhibition %, planktonic cells viability: 12.3 ± 21.4%
S. aureus ATCC 25923 [1]; 10 µM
  Average inhibition %, biofilms viability: 29.1 ± 5.4%
  Average inhibition %, planktonic cells viability: 14.8 ± 15.3%
S. aureus ATCC 25923 [1]; 15 µM
  Average inhibition %, biofilms viability: 52.5 ± 43.2%
  Average inhibition %, planktonic cells viability: 36.1 ± 55.2%
S. aureus ATCC 25923 [1]; 25 µM
  Average inhibition %, biofilms viability: 99.7 ± 0%
  Average inhibition %, planktonic cells viability: 99.9 ± 0.2%
S. aureus ATCC 25923 [2]; 25 µM
  Average inhibition %, biofilms viability: 14.4 ± 14%
  Average inhibition %, planktonic cells viability: 0 ± 0%
S. aureus ATCC 25923 [2]; 50 µM
  Average inhibition %, biofilms viability: 23.1 ± 5.1%
  Average inhibition %, planktonic cells viability: 12.8 ± 18.3%
S. aureus ATCC 25923 [2]; 100 µM
  Average inhibition %, biofilms viability: 35.4 ± 15.6%
  Average inhibition %, planktonic cells viability: 61.4 ± 27.6%
S. aureus ATCC 25923 [2]; 200 µM
  Average inhibition %, biofilms viability: 75.7 ± 18.5%
  Average inhibition %, planktonic cells viability: 98 ± 3.3%
S. aureus ATCC 25923 [2]; [9]
  inhibition at 25 µM: 38.4 ± 9.2%
  inhibition at 50 µM: 50.1 ± 4.6%
  inhibition at 100 µM: 64.7 ± 9.1%
  inhibition at 200 µM: 79.9 ± 12%
S. aureus ATCC 25923 [2]; [10]
  inhibition at 25 µM: 6.1 ± 8%
  inhibition at 50 µM: 33.5 ± 18.7%
  inhibition at 100 µM: 48.9 ± 21.5%
  inhibition at 200 µM: 79.1 ± 6.3%
A. baumannii NCTC 13423; 10 µM
  Average inhibition %, biofilms viability: 0.2 ± 0.4%
  Average inhibition %, planktonic cells viability: 5.5 ± 0.6%
A. baumannii NCTC 13423; 15 µM
  Average inhibition %, biofilms viability: 99.2 ± 1.1%
  Average inhibition %, planktonic cells viability: 99.8 ± 0.1%
A. baumannii NCTC 13423; 25 µM
  Average inhibition %, biofilms viability: 100 ± 1.1%
  Average inhibition %, planktonic cells viability: 99.8 ± 0.2%
A. baumannii NCTC 13423; 50 µM
  Average inhibition %, biofilms viability: 98.7 ± 2.5%
  Average inhibition %, planktonic cells viability: 99.8 ± 0.1%
A. baumannii NCTC 13423; [3]
  inhibition at 10 µM: 0.6 ± 1%
A. baumannii NCTC 13423; [4]
  inhibition at 10 µM: 0%
A. baumannii NCTC 13423; [5]
  inhibition at 15 µM: 76.9 ± 3.5%
A. baumannii NCTC 13423; [6]
  inhibition at 15 µM: 99.1 ± 1.1%
A. baumannii NCTC 13423; [7]
  inhibition at 25 µM: 81.7 ± 1%
A. baumannii NCTC 13423; [8]
  inhibition at 25 µM: 99.1 ± 1%
A. baumannii NCTC 13423; [11]
  inhibition at 50 µM: 79 ± 3.8%
A. baumannii NCTC 13423; [12]
  inhibition at 50 µM: 98.3 ± 0.9%
A. baumannii NCTC 13423; pre-exposure, Inactive = no activity up to 50 μM, > = some inhibition but no MIC reached, read-out: MIC A. baumannii NCTC 13423
  MIC: 15 µM (≈ 4.61 µg/mL)
A. baumannii NCTC 13423; supplementary molecular formula strings sheet, read-out: MIC (A. baumannii)
  MIC: 15 µM (≈ 4.61 µg/mL)
P. aeruginosa ATCC 9027; 50 µM
  Average inhibition %, biofilms viability: 53.1 ± 41.1%
  Average inhibition %, planktonic cells viability: 98.1 ± 0.5%
P. aeruginosa ATCC 9027; 100 µM
  Average inhibition %, biofilms viability: 99.2 ± 2%
  Average inhibition %, planktonic cells viability: 99 ± 1.3%
P. aeruginosa ATCC 9027; 150 µM
  Average inhibition %, biofilms viability: 99.9 ± 0.9%
  Average inhibition %, planktonic cells viability: 99.4 ± 0.7%
P. aeruginosa ATCC 9027; 200 µM
  Average inhibition %, biofilms viability: 100.3 ± 0.5%
  Average inhibition %, planktonic cells viability: 99.9 ± 0.1%
P. aeruginosa ATCC 9027; ATCC9027, pre-exposure, Inactive = no activity up to 200 μM, > = some inhibition but no MIC reached, read-out: MIC P. aeruginosa ATCC 9027
  MIC: 50 to 100 µM (≈ 15.4 to 30.7 µg/mL)
P. aeruginosa ATCC 9027; ATCC9027, supplementary molecular formula strings sheet, read-out: MIC (P. aeruginosa)
  MIC: 50 to 100 µM (≈ 15.4 to 30.7 µg/mL)
P. aeruginosa ATCC 9027; [11]
  inhibition at 50 µM: 52.1 ± 19.8%
P. aeruginosa ATCC 9027; [12]
  inhibition at 50 µM: 94.5 ± 0.8%
P. aeruginosa ATCC 9027; 100 µM, read-out: Average inhibition %, biofilms biomass
  inhibition at 100 µM: 82.4 ± 25.2%
P. aeruginosa ATCC 9027; 100 µM, read-out: Average inhibition %, planktonic cells turbidity
  inhibition at 100 µM: 97.2 ± 2.5%
P. aeruginosa ATCC 9027; 150 µM, read-out: Average inhibition %, biofilms biomass
  inhibition at 150 µM: 89.4 ± 13.3%
P. aeruginosa ATCC 9027; 150 µM, read-out: Average inhibition %, planktonic cells turbidity
  inhibition at 150 µM: 96.9 ± 1.2%
P. aeruginosa ATCC 9027; 200 µM, read-out: Average inhibition %, biofilms biomass
  inhibition at 200 µM: 94.3 ± 1.4%
P. aeruginosa ATCC 9027; 200 µM, read-out: Average inhibition %, planktonic cells turbidity
  inhibition at 200 µM: 97.5 ± 0.3%
